Test results taken from ChEMBL document CHEMBL4507295 (2021).

Legend:
[1] = molecular target: Tyrosine-protein kinase Fgr (Homo sapiens) (UniProt P09769); settings: Compound concentration 1000.0 nM
[2] = molecular target: Homeodomain-interacting protein kinase 4 (Homo sapiens) (UniProt Q8NE63); settings: Compound concentration 1000.0 nM
[3] = molecular target: Receptor tyrosine-protein kinase erbB-2 (Homo sapiens) (UniProt P04626); settings: Compound concentration 1000.0 nM
[4] = molecular target: Mitogen-activated protein kinase kinase kinase 3 (Homo sapiens) (UniProt Q99759); settings: Compound concentration 1000.0 nM
[5] = molecular target: RAC-gamma serine/threonine-protein kinase (Homo sapiens) (UniProt Q9Y243); settings: Compound concentration 1000.0 nM
[6] = molecular target: Cyclin-dependent kinase-like 2 (Homo sapiens) (UniProt Q92772); settings: Compound concentration 1000.0 nM
[7] = molecular target: Serine/threonine-protein kinase MRCK beta (Homo sapiens) (UniProt Q9Y5S2); settings: Compound concentration 1000.0 nM
Serine/threonine-protein kinase MRCK beta (Homo sapiens), sequence (Q9Y5S2 whole entry): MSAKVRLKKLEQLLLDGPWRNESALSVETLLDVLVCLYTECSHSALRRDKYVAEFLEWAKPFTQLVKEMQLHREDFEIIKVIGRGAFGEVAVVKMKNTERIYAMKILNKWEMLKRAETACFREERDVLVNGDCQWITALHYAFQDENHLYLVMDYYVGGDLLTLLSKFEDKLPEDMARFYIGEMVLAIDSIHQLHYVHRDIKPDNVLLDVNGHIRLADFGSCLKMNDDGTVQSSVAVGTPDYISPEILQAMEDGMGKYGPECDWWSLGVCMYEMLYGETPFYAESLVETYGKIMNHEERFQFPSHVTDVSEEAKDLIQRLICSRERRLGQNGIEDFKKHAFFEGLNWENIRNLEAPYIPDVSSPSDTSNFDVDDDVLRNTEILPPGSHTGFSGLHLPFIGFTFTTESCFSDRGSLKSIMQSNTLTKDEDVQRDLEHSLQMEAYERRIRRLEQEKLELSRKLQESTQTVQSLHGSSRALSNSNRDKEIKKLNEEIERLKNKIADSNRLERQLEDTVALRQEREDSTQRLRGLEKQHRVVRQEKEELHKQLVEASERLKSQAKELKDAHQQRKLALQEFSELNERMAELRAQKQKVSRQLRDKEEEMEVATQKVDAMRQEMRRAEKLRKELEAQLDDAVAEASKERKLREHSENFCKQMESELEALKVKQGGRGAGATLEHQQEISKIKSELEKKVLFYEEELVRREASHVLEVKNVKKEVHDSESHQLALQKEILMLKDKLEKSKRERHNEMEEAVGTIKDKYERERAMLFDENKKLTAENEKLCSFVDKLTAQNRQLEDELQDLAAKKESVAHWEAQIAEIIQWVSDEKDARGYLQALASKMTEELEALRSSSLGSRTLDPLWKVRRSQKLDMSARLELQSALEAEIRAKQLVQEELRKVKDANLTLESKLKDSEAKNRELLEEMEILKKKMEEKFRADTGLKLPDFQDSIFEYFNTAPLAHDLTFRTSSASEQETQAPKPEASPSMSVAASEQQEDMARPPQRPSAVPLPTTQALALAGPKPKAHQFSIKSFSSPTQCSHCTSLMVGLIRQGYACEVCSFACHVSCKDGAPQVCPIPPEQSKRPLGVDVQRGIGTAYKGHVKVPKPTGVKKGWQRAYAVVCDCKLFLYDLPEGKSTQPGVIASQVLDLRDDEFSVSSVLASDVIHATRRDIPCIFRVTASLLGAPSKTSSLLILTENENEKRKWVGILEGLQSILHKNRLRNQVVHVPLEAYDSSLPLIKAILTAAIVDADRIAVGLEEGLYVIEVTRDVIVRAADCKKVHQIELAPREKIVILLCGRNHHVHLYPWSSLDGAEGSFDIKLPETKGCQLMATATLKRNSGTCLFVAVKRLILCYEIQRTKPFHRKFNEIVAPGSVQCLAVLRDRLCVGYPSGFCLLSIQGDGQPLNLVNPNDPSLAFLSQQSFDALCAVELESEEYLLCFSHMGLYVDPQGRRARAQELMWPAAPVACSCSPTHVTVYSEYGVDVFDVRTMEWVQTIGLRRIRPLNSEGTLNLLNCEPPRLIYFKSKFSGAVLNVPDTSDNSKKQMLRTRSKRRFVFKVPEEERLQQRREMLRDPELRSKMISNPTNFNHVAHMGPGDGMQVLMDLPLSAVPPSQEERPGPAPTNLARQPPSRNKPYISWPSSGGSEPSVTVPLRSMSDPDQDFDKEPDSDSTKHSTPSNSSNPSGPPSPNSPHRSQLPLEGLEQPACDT

[8] = tested on: Epidermal growth factor receptor (Homo sapiens), P00533 [UNDEFINED MUTATION]; settings: Compound concentration 1000.0 nM
[9] = molecular target: Serine/threonine-protein kinase pim-2 (Homo sapiens) (UniProt Q9P1W9); settings: Compound concentration 1000.0 nM
[10] = molecular target: Ribosomal protein S6 kinase alpha-2 (Homo sapiens) (UniProt Q15349); settings: Compound concentration 1000.0 nM
[11] = tested on: Mast/stem cell growth factor receptor Kit (Homo sapiens), P10721 [D816H]; settings: Compound concentration 1000.0 nM
[12] = molecular target: Tyrosine-protein kinase ABL2 (Homo sapiens) (UniProt P42684); settings: Compound concentration 1000.0 nM
[13] = molecular target: Activin receptor type-1-like (Homo sapiens) (UniProt P37023); settings: Compound concentration 1000.0 nM
Activin receptor type-1-like (Homo sapiens), sequence (P37023 whole entry): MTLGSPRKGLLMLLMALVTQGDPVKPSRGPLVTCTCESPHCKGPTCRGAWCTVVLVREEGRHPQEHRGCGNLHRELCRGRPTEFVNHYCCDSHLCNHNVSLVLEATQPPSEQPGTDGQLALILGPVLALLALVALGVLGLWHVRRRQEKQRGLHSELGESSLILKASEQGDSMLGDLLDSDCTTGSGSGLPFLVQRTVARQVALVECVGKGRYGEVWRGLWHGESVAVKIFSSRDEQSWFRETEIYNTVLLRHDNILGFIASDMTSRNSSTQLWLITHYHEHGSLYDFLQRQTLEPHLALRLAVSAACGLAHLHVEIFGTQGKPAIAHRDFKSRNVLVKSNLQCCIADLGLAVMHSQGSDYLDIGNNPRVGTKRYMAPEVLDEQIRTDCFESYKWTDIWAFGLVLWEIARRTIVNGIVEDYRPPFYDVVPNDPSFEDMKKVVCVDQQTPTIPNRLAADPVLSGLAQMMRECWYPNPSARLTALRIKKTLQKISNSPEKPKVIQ

[14] = molecular target: Mitogen-activated protein kinase 6 (Homo sapiens) (UniProt Q16659); settings: Compound concentration 1000.0 nM
Mitogen-activated protein kinase 6 (Homo sapiens), sequence (Q16659 whole entry): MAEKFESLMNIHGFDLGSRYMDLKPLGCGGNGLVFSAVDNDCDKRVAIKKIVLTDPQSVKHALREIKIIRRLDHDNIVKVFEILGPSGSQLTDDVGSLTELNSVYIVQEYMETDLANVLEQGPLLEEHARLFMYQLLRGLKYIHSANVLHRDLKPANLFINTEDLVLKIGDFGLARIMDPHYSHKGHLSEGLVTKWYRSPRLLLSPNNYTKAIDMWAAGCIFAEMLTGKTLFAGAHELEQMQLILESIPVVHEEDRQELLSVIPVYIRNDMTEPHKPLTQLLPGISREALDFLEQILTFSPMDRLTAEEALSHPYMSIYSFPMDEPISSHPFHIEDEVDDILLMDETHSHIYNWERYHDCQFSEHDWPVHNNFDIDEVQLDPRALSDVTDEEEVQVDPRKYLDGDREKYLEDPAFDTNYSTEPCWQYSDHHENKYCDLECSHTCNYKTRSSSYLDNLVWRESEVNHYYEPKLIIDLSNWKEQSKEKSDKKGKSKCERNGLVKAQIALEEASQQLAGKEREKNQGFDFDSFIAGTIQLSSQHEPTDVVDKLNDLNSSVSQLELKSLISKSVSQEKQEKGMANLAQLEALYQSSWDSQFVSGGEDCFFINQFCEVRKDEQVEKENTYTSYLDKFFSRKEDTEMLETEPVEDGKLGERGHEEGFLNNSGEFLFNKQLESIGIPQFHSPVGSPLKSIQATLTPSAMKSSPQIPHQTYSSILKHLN

[15] = molecular target: Mitogen-activated protein kinase kinase kinase 2 (Homo sapiens) (UniProt Q9Y2U5); settings: Compound concentration 1000.0 nM
[16] = tested on: Fibroblast growth factor receptor 3 (Homo sapiens), P22607 [G697C]; settings: Compound concentration 1000.0 nM
[17] = molecular target: cGMP-dependent protein kinase 1 (Homo sapiens) (UniProt Q13976); settings: Compound concentration 1000.0 nM
[18] = molecular target: Cyclin-dependent kinase 19 (Homo sapiens) (UniProt Q9BWU1); settings: Compound concentration 1000.0 nM
[19] = molecular target: Platelet-derived growth factor receptor alpha (Homo sapiens) (UniProt P16234); settings: Compound concentration 1000.0 nM
[20] = molecular target: Cyclin-dependent kinase 15 (Homo sapiens) (UniProt Q96Q40); settings: Compound concentration 1000.0 nM
[21] = molecular target: Epithelial discoidin domain-containing receptor 1 (Homo sapiens) (UniProt Q08345); settings: Compound concentration 1000.0 nM
Epithelial discoidin domain-containing receptor 1 (Homo sapiens), sequence (Q08345 whole entry, the tested form may be a part): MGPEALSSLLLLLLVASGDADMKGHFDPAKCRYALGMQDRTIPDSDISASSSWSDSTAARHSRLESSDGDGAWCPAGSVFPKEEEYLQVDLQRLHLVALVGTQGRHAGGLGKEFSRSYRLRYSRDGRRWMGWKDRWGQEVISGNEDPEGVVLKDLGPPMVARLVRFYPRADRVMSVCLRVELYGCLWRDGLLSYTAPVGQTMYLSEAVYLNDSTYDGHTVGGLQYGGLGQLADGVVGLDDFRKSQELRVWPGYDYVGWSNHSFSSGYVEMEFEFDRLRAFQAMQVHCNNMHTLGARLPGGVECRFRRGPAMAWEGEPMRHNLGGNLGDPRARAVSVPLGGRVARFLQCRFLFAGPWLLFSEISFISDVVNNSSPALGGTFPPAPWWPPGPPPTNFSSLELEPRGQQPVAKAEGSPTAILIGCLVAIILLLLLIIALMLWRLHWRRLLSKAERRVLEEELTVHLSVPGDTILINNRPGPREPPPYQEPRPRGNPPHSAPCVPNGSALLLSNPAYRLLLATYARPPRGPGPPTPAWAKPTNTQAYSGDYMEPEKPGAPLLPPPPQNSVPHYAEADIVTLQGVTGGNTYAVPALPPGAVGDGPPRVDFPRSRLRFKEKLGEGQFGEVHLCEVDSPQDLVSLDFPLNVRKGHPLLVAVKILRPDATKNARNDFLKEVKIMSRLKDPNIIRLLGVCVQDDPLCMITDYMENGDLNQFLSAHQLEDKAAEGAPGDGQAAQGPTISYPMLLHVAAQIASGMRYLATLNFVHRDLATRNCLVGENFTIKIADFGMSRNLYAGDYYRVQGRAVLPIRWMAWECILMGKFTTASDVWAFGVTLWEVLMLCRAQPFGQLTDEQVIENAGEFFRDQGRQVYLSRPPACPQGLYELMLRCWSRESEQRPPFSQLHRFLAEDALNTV

[22] = molecular target: Serine/threonine-protein kinase D1 (Homo sapiens) (UniProt Q15139); settings: Compound concentration 1000.0 nM
[23] = molecular target: Muscle, skeletal receptor tyrosine-protein kinase (Homo sapiens) (UniProt O15146); settings: Compound concentration 1000.0 nM
[24] = molecular target: Mitogen-activated protein kinase 15 (Homo sapiens) (UniProt Q8TD08); settings: Compound concentration 1000.0 nM
[25] = molecular target: Tyrosine-protein kinase HCK (Homo sapiens) (UniProt P08631); settings: Compound concentration 1000.0 nM
[26] = molecular target: Serine/threonine-protein kinase SIK2 (Homo sapiens) (UniProt Q9H0K1); settings: Compound concentration 1000.0 nM
[27] = molecular target: Aurora kinase C (Homo sapiens) (UniProt Q9UQB9); settings: Compound concentration 1000.0 nM
[28] = molecular target: GABA-A receptor; anion channel (Rattus norvegicus) (UniProt O09028+P15431+P18506+P18508+P19969+P20236+P23574+P23576+P28471+P28473+P30191+P62813+P63079+P63138+Q91ZM7+Q9ES14); settings: Compound concentration 10.0 uM
[29] = molecular target: Serine/threonine-protein kinase ULK2 (Homo sapiens) (UniProt Q8IYT8); settings: Compound concentration 1000.0 nM
[30] = molecular target: Serine/threonine-protein kinase DCLK3 (Homo sapiens) (UniProt Q9C098); settings: Compound concentration 1000.0 nM
[31] = molecular target: Ribosomal protein S6 kinase alpha-1 (Homo sapiens) (UniProt Q15418); settings: Compound concentration 1000.0 nM
[32] = molecular target: T1, Muscarinic acetylcholine receptor M5 (Homo sapiens) (UniProt P08912); settings: Compound concentration 10.0 uM
T1 sequence (whole entry): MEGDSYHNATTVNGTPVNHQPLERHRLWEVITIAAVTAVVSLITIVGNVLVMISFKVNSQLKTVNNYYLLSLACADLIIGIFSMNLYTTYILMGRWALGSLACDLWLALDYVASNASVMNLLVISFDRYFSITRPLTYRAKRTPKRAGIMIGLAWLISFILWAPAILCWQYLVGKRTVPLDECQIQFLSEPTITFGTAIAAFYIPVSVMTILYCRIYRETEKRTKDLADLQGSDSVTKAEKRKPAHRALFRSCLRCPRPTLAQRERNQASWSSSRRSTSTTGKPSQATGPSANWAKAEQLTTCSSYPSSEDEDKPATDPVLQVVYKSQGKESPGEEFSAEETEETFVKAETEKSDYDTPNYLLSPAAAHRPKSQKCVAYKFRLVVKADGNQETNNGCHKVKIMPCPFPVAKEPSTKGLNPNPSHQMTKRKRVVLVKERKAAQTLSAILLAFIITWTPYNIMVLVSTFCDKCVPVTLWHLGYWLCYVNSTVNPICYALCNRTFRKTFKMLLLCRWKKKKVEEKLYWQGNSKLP

[33] = molecular target: Interleukin-1 receptor-associated kinase 4 (Homo sapiens) (UniProt Q9NWZ3); settings: Compound concentration 1000.0 nM
[34] = molecular target: SNF-related serine/threonine-protein kinase (Homo sapiens) (UniProt Q9NRH2); settings: Compound concentration 1000.0 nM
[35] = molecular target: Serine/threonine-protein kinase 10 (Homo sapiens) (UniProt O94804); settings: Compound concentration 1000.0 nM
[36] = molecular target: Tyrosine-protein kinase Mer (Homo sapiens) (UniProt Q12866); settings: Compound concentration 1000.0 nM
Tyrosine-protein kinase Mer (Homo sapiens), sequence (Q12866 whole entry): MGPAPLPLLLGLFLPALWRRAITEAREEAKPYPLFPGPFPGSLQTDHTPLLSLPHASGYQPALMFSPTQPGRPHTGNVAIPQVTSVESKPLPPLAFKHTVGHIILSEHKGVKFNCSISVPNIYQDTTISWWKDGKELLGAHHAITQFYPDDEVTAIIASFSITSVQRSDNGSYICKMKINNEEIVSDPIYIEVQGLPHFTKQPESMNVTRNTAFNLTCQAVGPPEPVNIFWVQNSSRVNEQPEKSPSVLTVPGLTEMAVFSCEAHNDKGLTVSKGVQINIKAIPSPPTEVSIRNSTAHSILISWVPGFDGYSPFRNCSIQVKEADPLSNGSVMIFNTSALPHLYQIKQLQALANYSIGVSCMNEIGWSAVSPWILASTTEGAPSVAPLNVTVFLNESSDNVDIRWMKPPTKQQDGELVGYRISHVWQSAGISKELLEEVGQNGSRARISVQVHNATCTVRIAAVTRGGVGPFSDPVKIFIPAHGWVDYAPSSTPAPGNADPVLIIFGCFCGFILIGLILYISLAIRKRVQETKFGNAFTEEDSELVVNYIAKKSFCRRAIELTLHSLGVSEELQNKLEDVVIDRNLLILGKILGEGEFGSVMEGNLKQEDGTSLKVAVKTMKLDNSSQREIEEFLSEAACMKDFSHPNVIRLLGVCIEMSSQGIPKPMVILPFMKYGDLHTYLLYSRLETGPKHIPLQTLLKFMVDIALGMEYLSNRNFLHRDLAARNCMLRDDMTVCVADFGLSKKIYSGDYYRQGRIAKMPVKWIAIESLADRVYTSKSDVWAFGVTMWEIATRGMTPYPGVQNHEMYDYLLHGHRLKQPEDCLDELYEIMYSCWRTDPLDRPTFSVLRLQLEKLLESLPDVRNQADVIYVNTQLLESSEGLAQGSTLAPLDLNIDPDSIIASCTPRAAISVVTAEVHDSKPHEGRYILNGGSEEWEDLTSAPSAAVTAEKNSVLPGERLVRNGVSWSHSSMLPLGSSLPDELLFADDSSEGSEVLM

[37] = tested on: Mast/stem cell growth factor receptor Kit (Homo sapiens), P10721 [A829P]; settings: Compound concentration 1000.0 nM

N#CC1(c2ccccn2)CCN(Cc2cc(C(=O)O)c(=O)n3ccccc23)CC1 [MSD-M1PAM]
inactive: residual activity [1] 94% | residual activity [2] 95% | residual activity [3] 96% | residual activity [4] 77% | residual activity [5] 100% | residual activity [6] 100% | residual activity [7] 96% | residual activity [8] 80% | residual activity [9] 100% | residual activity [10] 100% | residual activity [11] 85% | residual activity [12] 100% | residual activity [13] 95% | residual activity [14] 100% | residual activity [15] 76% | residual activity [16] 100% | residual activity [17] 98% | residual activity [18] 82% | residual activity [19] 90% | residual activity [20] 100% | residual activity [21] 100% | residual activity [22] 87% | residual activity [23] 96% | residual activity [24] 100% | residual activity [25] 100% | residual activity [26] 100% | residual activity [27] 94% | inhibition [28] 8.92% | residual activity [29] 93% | residual activity [30] 89% | residual activity [31] 94% | inhibition [32] 4.74% | residual activity [33] 83% | residual activity [34] 76% | residual activity [35] 100% | residual activity [36] 100% | residual activity [37] 84%

N#CC1(c2ccccn2)CCN(Cc2cc(C(=O)N3CCCC3)c(=O)n3ccccc23)CC1
inactive: residual activity [1] 100% | residual activity [2] 67% | residual activity [3] 95% | residual activity [4] 92% | residual activity [5] 74% | residual activity [6] 93% | residual activity [7] 63% | residual activity [8] 94% | residual activity [9] 77% | residual activity [10] 86% | residual activity [11] 100% | residual activity [12] 100% | residual activity [13] 100% | residual activity [14] 79% | residual activity [15] 100% | residual activity [16] 98% | residual activity [17] 88% | residual activity [18] 75% | residual activity [19] 97% | residual activity [20] 85% | residual activity [21] 85% | residual activity [22] 95% | residual activity [23] 90% | residual activity [24] 92% | residual activity [25] 100% | residual activity [26] 100% | residual activity [27] 88% | inhibition [28] 21.8% | residual activity [29] 92% | residual activity [30] 100% | residual activity [31] 100% | inhibition [32] 0.56% | residual activity [33] 100% | residual activity [34] 91% | residual activity [35] 95% | residual activity [36] 86% | residual activity [37] 50%
